Laboratory results from publication PMC6325219, “Preclinical Characterization of NVR 3-778, a First-in-Class Capsid Assembly Modulator against Hepatitis B Virus” (Antimicrobial Agents and Chemotherapy, 2018).
Several values for one entry are separate records, joined by “and”; a condition that tells them apart may be missing. Identical values can stand only once. Counter-ions that a name gives are not always drawn. Marks after values point to notes of the source that are not given here.

Key:
[1] = test system: HBV core protein variant T109I; parameters: method as in PMID 26598693; conditions: previously published results; cited from earlier work
HBV GT B (wild-type HBV) [2] = test system: HBV GT B (wild-type HBV); parameters: method as in PMID 26598693; conditions: reference; previously published results; cited from earlier work
[3] = test system: HBV core protein variant I105V; parameters: method as in PMID 26598693; conditions: previously published results; cited from earlier work
[4] = test system: HBV core protein variant I105L; parameters: method as in PMID 26598693; conditions: previously published results; cited from earlier work
[5] = test system: HBV core protein variant I105T; parameters: method as in PMID 26598693; conditions: previously published results; cited from earlier work
[6] = test system: HBV core protein variant Y118F; parameters: method as in PMID 26598693; conditions: previously published results; cited from earlier work
[7] = test system: HBV core protein variant T109S; parameters: method as in PMID 26598693; conditions: previously published results; cited from earlier work
[8] = test system: HBV core protein variant T109M; parameters: method as in PMID 26598693; conditions: previously published results; cited from earlier work
HBV T109M core variant = test system: HBV T109M core variant; parameters: method as in doi:10.1016/S0168-8278(18)30439-2; conditions: phase 1b; cited from earlier work
HBV [9] = assay: Combination study of NVR 3-778 with nucleos(t)ide analogs in HepG2.2.15 cells (MacSynergy II, CalcuSyn); format: cell-based, hepatitis B virus (GT D); conditions: in combination with NVR 3-778; for Antagonism / Synergy: HepG2.2.15 cells, 6 days, MacSynergy II, 95% confidence; for CalcuSyn-predicted effect: based on overall CI; for MacSynergy-predicted effect: volumes <25 µM^2% defined as insignificant
Method: The effect of the compound combinations on cell viability was evaluated by measuring the intracellular ATP levels of HepG2.2.15 cells.
(§1) HepG2.2.15 cells were seeded in 96-well plates at a density of 40,000 cells/well and incubated with serially diluted compounds at a final DMSO concentration of 0.5%. In combination studies, cells were treated with compounds either alone or in combination after combining the compounds in a checkerboard format. In studies examining the effect of human serum, serially diluted NVR 3-778 was added into cell culture medium containing 0% to 40% human serum (BioreclamationIVT). Cells were incubated with the compounds for 3 days, after which the medium was removed, fresh medium containing the compounds was added to the cells, and the cells were incubated for another 3 days prior to harvesting of the supernatants or cells for antiviral assays. To quantify intracellular encapsidated rcDNA or encapsidated pgRNA, cells were first solubilized using lysis buffer containing 1% NP-40 and 10 mM CaCl2. The cytoplasmic fraction was then treated with S7 nuclease (6 units) to remove nonencapsidated nucleic acids, after which the S7 nuclease was inactivated by the addition of EDTA (0.5 M). To quantify extracellular HBV DNA or HBV RNA, supernatants from HepG2.2.15 cells were treated with Turbo DNase at 37°C for 60 min, followed by inactivation of DNase at 75°C for 15 min. The levels of HBV DNA were determined by a bDNA assay as described above (Affymetrix). Supernatants or cell lysates containing HBV RNA were treated with proteinase K (2.5 µg) at 50°C for 40 min, transferred to a capture plate containing HBV RNA probe sets, and hybridized overnight at 55°C. Captured HBV RNA was measured by the addition of a chemiluminescent substrate using a QuantiGene assay (Affymetrix). To determine the cytotoxicity effect of the compounds on proliferating cells, HepG2.2.15 cells were seeded in 96-well plates at a density of 10,000 cells/well and incubated with serially diluted compounds at a final DMSO concentration of 0.5% for 3 days, after which the medium was removed, fresh medium containing the compounds was added to the cells, and the cells were incubated for another 3 days. At day 6, the CellTiter-Glo reagent was added to the cells and viability was determined according to the manufacturer’s protocol (Promega). Luminescence signals were measured at 0.2 s using a Victor X4 multimode plate reader (PerkinElmer).
(§2) To determine percent inhibition, the mean background signal from wells containing only culture medium was subtracted from the signal for all other samples, and percent inhibition at each compound concentration was calculated by normalization to the signals for HepG2.2.15 cells treated with 0.5% DMSO. […] Both CalcuSyn and MacSynergy II (Ann Arbor, MI) software were used to evaluate the effect of compound combinations ([27]). After data analysis at the 95% confidence level, values of synergy or antagonism of <25 µM^2% were defined as insignificant, those between 25 and 50 µM^2% were defined as minor, those between 50 and 100 µM^2% were defined as moderate, and those of >100 µM^2% were defined as strong.

HBV GT B (wild-type HBV) [10] = assay: Transient-transfection antiviral study in HepG2 cells, GT B (wild-type HBV); format: cell-based, hepatitis B virus; conditions: Hepatitis B virus, HepG2, read-out: WT EC50
Method: (§5) Cells were cotransfected with the HBV plasmids (100 ng/well) and a Gaussia expression plasmid (10 ng/well) (Thermo Scientific) using the Lipofectamine LTX Plus transfection reagent (Life Technologies). Transfection mixtures were removed after overnight incubation, and cells were treated with serially diluted NVR 3-778 at a final dimethyl sulfoxide (DMSO) concentration of 0.5%. After 3 days of incubation with the compound, the supernatants were collected and secreted Gaussia luciferase was measured using a Gaussia Flash luciferase assay kit (Thermo Scientific). […] Samples were diluted into lysis buffer (Affymetrix) containing 2.5 µg proteinase K (Affymetrix) at 50°C for 40 min. Intracellular encapsidated HBV DNA was denatured for 30 min at 25°C in 0.2 M NaOH (Sigma) and incubated with HBV DNA probes designed to hybridize to the minus-strand HBV DNA (Affymetrix). The denatured DNA was subsequently detected using a QuantiGene assay kit, according to the branched DNA (bDNA) assay recommended by the manufacturer (Affymetrix).

[11] = test system: HBV rtA181V/N236T variant; format: cell-based, hepatitis B virus; conditions: ratio of mean EC50 against variant over WT HBV, HepG2 cells
From the text: (§3) Plasmids containing HBV DNA with rtN236T, rtA181V, rtA181V/N236T, and rtL180M/M204V/N236T were generated using the GT B WT or rtL180M/M204V DNA-containing plasmids and site-directed mutagenesis (Agilent Technologies). A panel of nine different HBV core variants (cW102G, cW102R, cI105V, cI105L, cI105T, cT109S, cT109M, cT109I, and cY118F) was generated, also using the GT B WT DNA-containing plasmid and site-directed mutagenesis. The full-length genome from all plasmids was sequenced to confirm that only the intended nucleotide change(s) was present. Finally, HBV sequences from genotypes A (GenBank accession number AF305422), C (GenBank accession number AB033550), D (GenBank accession number V01460), E (GenBank accession number AB274971), F (GenBank accession number AB036912), G (GenBank accession number AF160501), and H (GenBank accession number AB375159) were gene synthesized as 1.1 times the genome length together with part of the CMV promoter at the 5′ end. The gene-synthesized piece was validated by sequencing and subcloned into the pCMV-HBV plasmid using the restriction sites SalI and NdeI (Genewiz, USA).
(§4) HepG2 cells were seeded in 96-well plates at a density of 20,000 cells/well and allowed to attach overnight at 37°C in 5% CO2. Cells were cotransfected with the HBV plasmids (100 ng/well) and a Gaussia expression plasmid (10 ng/well) (Thermo Scientific) using the Lipofectamine LTX Plus transfection reagent (Life Technologies). Transfection mixtures were removed after overnight incubation, and cells were treated with serially diluted NVR 3-778 at a final dimethyl sulfoxide (DMSO) concentration of 0.5%. After 3 days of incubation with the compound, the supernatants were collected and secreted Gaussia luciferase was measured using a Gaussia Flash luciferase assay kit (Thermo Scientific). Cells were lysed with 0.33% NP-40 (Thermo Scientific), and the cytoplasmic fractions were treated with 2 units of Turbo DNase (Invitrogen) and 10 units of S7 nuclease (Roche) in CutSmart buffer (New England Biolabs) containing 25 µM CaCl2 (G-Biosciences) at 37°C for 60 min, followed by inactivation of the enzymes at 75°C for 15 min. Samples were diluted into lysis buffer (Affymetrix) containing 2.5 µg proteinase K (Affymetrix) at 50°C for 40 min. Intracellular encapsidated HBV DNA was denatured for 30 min at 25°C in 0.2 M NaOH (Sigma) and incubated with HBV DNA probes designed to hybridize to the minus-strand HBV DNA (Affymetrix). The denatured DNA was subsequently detected using a QuantiGene assay kit, according to the branched DNA (bDNA) assay recommended by the manufacturer (Affymetrix).
as §2

HBV rtN236T variant = format: cell-based, hepatitis B virus; conditions: ratio of mean EC50 against variant over WT HBV, HepG2 cells
From the text: as §3, §4, §2

[12] = test system: HBV rtL180M/M204V/N236T variant; assay: microbe, parasite or virus in culture; format: cell-based, hepatitis B virus; conditions: ratio of mean EC50 against variant over WT HBV, HepG2 cells
From the text: as §3, §4, §2

[13] = test system: HBV rtL180M/M204V variant; assay: microbe, parasite or virus in culture; format: cell-based, hepatitis B virus; conditions: for EC50 fold change, rtL180M/M204V: ratio of mean EC50 against variant over WT HBV, HepG2 cells
From the text: as §3, §4, §2

HBV rtA181V variant = assay: microbe, parasite or virus in culture; format: cell-based, hepatitis B virus; conditions: for EC50 fold change, rtA181V: ratio of mean EC50 against variant over WT HBV, HepG2 cells
From the text: as §3, §4, §2

HBV [14] = assay: Antiviral studies using HepG2.2.15 cells (HBV DNA and HBV RNA readouts); format: cell-based, hepatitis B virus (GT D); conditions: HepG2.2.15 cells
Method: as §1, with “In” for “HepG2.2.15 cells were seeded in 96-well plates at a density of 40,000 cells/well and incubated with serially diluted compounds at a final DMSO concentration of 0.5%. In”, “To quantify extracellular HBV DNA or HBV RNA, supernatants from HepG2.2.15 cells were treated with Turbo DNase at 37°C for 60 min, followed by inactivation of DNase at 75°C for 15 min.” left out, “To determine the cytotoxicity effect of the compounds on proliferating cells, HepG2.2.15 cells were seeded in 96-well plates at a density of 10,000 cells/well and incubated with serially diluted compounds at a final DMSO concentration of 0.5% for 3 days, after which the medium was removed, fresh medium containing the compounds was added to the cells, and the cells were incubated for another 3 days.” left out

[15] = test system: nucleoside-resistant HBV variants; assay: Transient-transfection antiviral study, panel of nucleoside-resistant HBV variants (summary statements); format: cell-based, hepatitis B virus; conditions: versus WT HBV
Method: as §5

| SMILES | EC50 FC, T109I [1] | EC50 FC, wild type (HBV GT B (wild-type HBV) [2]) | EC50 FC, I105V [3] | EC50 FC, I105L [4] | EC50 FC, I105T [5] | EC50 FC, Y118F [6] | EC50 FC, T109S [7] | EC50 FC, T109M [8] | Antagonism (HBV [9]) | Synergy (HBV [9]) | CalcuSyn-predicted effect (HBV [9]) | MacSynergy-predicted effect (HBV [9]) | EC50 (HBV GT B (wild-type HBV) [10]) | EC50 fold change, rtA181V/N236T [11] | EC50 fold change, rtN236T (HBV rtN236T variant) | EC50 fold change, rtL180M/M204V/N236T [12] | EC50 fold change, rtL180M/M204V [13] | EC50 fold change, rtA181V (HBV rtA181V variant) | further results |
| --- | --- | --- | --- | --- | --- | --- | --- | --- | --- | --- | --- | --- | --- | --- | --- | --- | --- | --- | --- |
| COC(=O)C1=C(C)NC(c2ncc(F)cc2F)=N[C@H]1c1ccc(F)cc1Cl [Bay 41-4109] | 21 fold | 1 fold | 1.3 fold | 0.44 fold | 1.5 fold | 8.2 fold | 0.40 fold | 3.7 fold | – | – | – | – | – | – | – | – | – | – | – |
| O=C(NCc1cnc(C(F)(F)F)s1)c1ccc2c(c1)NC(=O)c1ccccc1S2(=O)=O [ABI-H0731] | – | – | – | – | – | – | – | – | – | – | – | – | – | – | – | – | – | – | Antiviral response in a patient with a preexisting T109M core variant (HBV T109M core variant): reduced antiviral response |
| C=C1[C@H](CO)[C@@H](O)C[C@@H]1n1cnc2c(=O)[nH]c(N)nc21 [ETV, entecavir] | – | – | – | – | – | – | – | – | −16.5 μM^2% | 1.0 μM^2% | Slight to moderate synergy | Additive | 1.4 ± 0.4 nM | 1.8 ± 0.6^d fold | 0.67 ± 0.22^d fold | 14 fold and 14 ± 4^a fold | 31 fold and 31 ± 16^a fold | 2.2 ± 0.5^a fold | – |
| COC(=O)C1=C(CN2CCOCC2)NC(c2nccs2)=N[C@@H]1c1ccc(F)cc1Br [NVR-010-001-E2] | 9.2 fold | 1 fold | 1.3 fold | 0.49 fold | 1.2 fold | 3.7 fold | 0.43 fold | 2.8 fold | – | – | – | – | – | – | – | – | – | – | – |
| C[C@H](Cn1cnc2c(N)ncnc21)OCP(=O)(O)O [TFV, tenofovir] | – | – | – | – | – | – | – | – | −7.3 μM^2% | 18.5 μM^2% | Slight to moderate synergy | Additive | – | – | – | – | – | – | Effect on HBV DNA production (HBV [14]): inhibited HBV DNA production; Effect on intracellular encapsidated HBV RNA and secreted HBV RNA (HBV [14]; dose-dependent): increased the levels |
| CC(C)OC(=O)OCOP(=O)(CO[C@H](C)Cn1cnc2c(N)ncnc21)OCOC(=O)OC(C)C [TDF, Tenofovir disoproxil fumarate] | – | – | – | – | – | – | – | – | – | – | – | – | 32 ± 15 nM | 2.8 ± 1.4^b fold | 2.2 ± 1.0^b fold | 2.9 ± 1.5^b fold | 1.1 ± 0.3^d fold | 1.4 ± 0.05^d fold | Reduction of antiviral activity against the variants that contained rtN236T [15]: about 3 fold; EC50 ([13]; Hepatitis B virus, HepG2, read-out: EC50 (mean), rtL180M/M204V variant): 34 nM; EC50 (HBV rtA181V variant; Hepatitis B virus, HepG2, read-out: EC50 (mean), rtA181V variant): 43 nM |
